{"source": "paper PMC5641094", "about": "“A peptide antagonist of Prep1-p160 interaction improves ceramide-induced insulin resistance in skeletal muscle cells” (Oncotarget, 2017)", "type_in_all_cases": "cell-based, rat", "key": {"L6 cells": {"tested_on": "L6 cells", "assay": "Glycogen content in L6 cells", "settings": "for effect on insulin-stimulated glycogen synthesis: insulin 100nM, C2cer 10μM, with or without Prep1(54-72)", "protocol": "Figure 6 Effect of Prep1(54-72) peptide on glycogen content and 2-DG uptake L6 control and Prep1 overexpressing cells were stimulated with Insulin (100nM) and/or C2cer (10μM) and incubated with Prep1(54-72). (A) Glycogen content and (B) 2-DG uptake were measured as described in methods. Bars represent the mean ± SD of three independent experiments. Asterisks denote statistically significant differences (*p<0.05; **p<0.01; ***p<0.001).\nGlycogen was isolated from L6 cells homogenized in 0.1% SDS, saturated with Na2SO4 for 30 minutes at 37°C, followed by ethanol (EtOH) precipitation. Glycogen content was determined as previously described. 2-DG uptake by the L6 cells was measured as previously reported."}, "[1]": {"tested_on": "IR tyrosine phosphorylation", "assay": "IR tyrosine phosphorylation, immunoprecipitation and Western blot", "settings": "insulin 100nM; for effect on insulin-stimulated IR tyrosine phosphorylation: L6 cells, C2cer 10μM 18h, with or without Prep1(54-72)", "protocol": "(§1) Figure 4 Prep1(54-72) peptide restores the insulin signaling inhibited by C2cer and Prep1 L6 cells were stimulated with insulin (100nM) and incubated with Prep1(54-72) in presence of C2cer at 10μM for 18h (A-B) or stable transfection of Prep1 (C-D). Protein lysates were immunoprecipitated with specific IR or IRS1 antibodies and analyzed by Western blot using antibodies for phosphotyrosines (pY) and beta-actin as loading control. Blots were detected by ECL and autoradiography. The autoradiographs are representative of three independent experiments. Asterisks denote statistically significant differences (*p<0.05; **p<0.01).\n(§2) Total cell lysates were obtained and separated by SDS-PAGE. Briefly, cells were solubilized with lysis buffer containing 50mM HEPES, 150mM NaCl, 10mM EDTA, 10mM Na4P2O7, 2mM sodium orthovanadate, 50mM NaF, 1mM phenylmethylsulfonyl fluoride, 10μg/ml aprotinin, 10μg/ml leupeptin, pH 7.4, and 1% (v/v) Triton X-100. Lysates were clarified by centrifugation at 12,000g for 20 minutes at 4°C. The protein concentrations in the cell lysates were measured using a Bio-Rad DC (detergent compatible) assay. Immunoprecipitation and Western blot analysis have been performed as previously described."}, "[2]": {"tested_on": "IRS1 tyrosine phosphorylation", "assay": "IRS1 tyrosine phosphorylation, immunoprecipitation and Western blot", "settings": "insulin 100nM; for effect on insulin-stimulated IRS1 tyrosine phosphorylation: L6 cells, C2cer 10μM 18h, with or without Prep1(54-72)", "protocol": "as §1, §2"}, "[3]": {"tested_on": "PGC-1α and GLUT4 protein expression", "assay": "PGC-1α and GLUT4 protein expression, Western blot", "protocol": "Figure 5 Effect of Prep1(54-72) peptide on Akt phosphorylation and PGC-1α and GLUT4 protein levels (A-B) L6 control and Prep1 overexpressing cells were stimulated with Insulin (100nM) and/or C2cer (10μM) and incubated with Prep1(54-72). Protein lysates were analyzed by Western blot using antibodies for pAkt, Akt and for the beta-actin, as a loading control. (C) PGC-1α and GLUT4 protein levels were measured by using specific antibodies for these proteins and beta-actin antibody was used as loading control. Blots were detected by ECL and autoradiography. The autoradiographs are representative of four independent experiments. Asterisks denote statistically significant differences (*p<0.05; **p<0.01; ***p<0.001).\nas §2"}, "[4]": {"settings": "Prep1L6 cells (stably transfected with Prep1 cDNA), incubated with Prep1(54-72)"}}}
{"molecule": "CCCCCCCCCCCCC/C=C/[C@@H](O)[C@H](CO)NC(C)=O", "note": "[C2cer, D-erythro-Sphingosine, N-Acetyl-, reference compound]", "values": [{"measurement": "reduction of insulin-stimulated glycogen content", "setting": "L6 cells; C2cer exposure (abstract)", "value": 1.3, "unit": "fold"}, {"measurement": "effect on insulin-stimulated glycogen synthesis", "setting": "L6 cells", "value": "negatively modulated"}, {"measurement": "effect on insulin-stimulated IR tyrosine phosphorylation", "setting": "[1]", "value": "blocked"}, {"measurement": "effect on insulin-stimulated IRS1 tyrosine phosphorylation", "setting": "[2]", "value": "blocked"}, {"measurement": "decrease of PGC-1α and GLUT4 protein expression", "setting": "[3]; L6 cells incubated with C2cer 10μM", "value": "approximately 35%"}]}
{"molecule": "Ac-KQAIYRHPLFPLLALLFEK-NH2 [Prep1(54-72)]", "values": [{"measurement": "effect on insulin-stimulated glycogen synthesis", "setting": "L6 cells", "value": "recovered the insulin response"}, {"measurement": "effect on insulin-stimulated IR tyrosine phosphorylation", "setting": "[1]", "value": "restored"}, {"measurement": "IR tyrosine phosphorylation in Prep1 overexpressing cells", "setting": "[1]; [4]", "value": "stimulated similarly to the control cells"}, {"measurement": "effect on insulin-stimulated IRS1 tyrosine phosphorylation", "setting": "[2]", "value": "restored"}, {"measurement": "IRS1 tyrosine phosphorylation in Prep1 overexpressing cells", "setting": "[2]; [4]", "value": "stimulated similarly to the control cells"}, {"measurement": "effect on decreased PGC-1α and GLUT4 protein expression", "setting": "[3]; L6 cells with C2cer or Prep1 overexpression, Prep1(54-72)", "value": "significantly reverted"}]}
